Measurements: patent publication US8337914B2, “Dietary food supplement containing natural cyclooxygenase inhibitors and methods for inhibiting pain and inflammation” (Access Business Group International LLC, priority 1999, dated 2012)

Molecular target: T1, COX-2 (Homo sapiens, UniProt P35354)
T1 construct: purchased
T1 sequence (P35354 18-604): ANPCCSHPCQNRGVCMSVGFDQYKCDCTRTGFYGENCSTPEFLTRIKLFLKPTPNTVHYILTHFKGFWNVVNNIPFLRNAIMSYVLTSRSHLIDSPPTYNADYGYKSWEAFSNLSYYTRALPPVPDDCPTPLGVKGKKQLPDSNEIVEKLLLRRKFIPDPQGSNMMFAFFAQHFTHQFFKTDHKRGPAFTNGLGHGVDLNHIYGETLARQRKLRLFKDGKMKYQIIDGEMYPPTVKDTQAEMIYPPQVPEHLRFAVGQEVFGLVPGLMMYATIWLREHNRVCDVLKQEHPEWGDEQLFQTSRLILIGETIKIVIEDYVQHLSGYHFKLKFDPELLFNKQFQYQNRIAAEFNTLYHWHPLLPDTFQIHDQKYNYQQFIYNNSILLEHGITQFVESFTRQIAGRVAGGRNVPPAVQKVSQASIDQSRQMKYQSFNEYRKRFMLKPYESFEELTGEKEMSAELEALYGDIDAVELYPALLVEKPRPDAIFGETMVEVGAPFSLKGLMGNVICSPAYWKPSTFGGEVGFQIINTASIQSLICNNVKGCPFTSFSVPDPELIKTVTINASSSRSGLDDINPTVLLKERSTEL
Assay: COX-2 enzyme assay with oxygen monitoring system (Example 3)
Assay type: biochemical
Conditions: for Specific Activity: the higher this number the more selective for COX-2 as opposed to COX-1
Procedure: The present example describes an enzyme assay method using an oxygen monitoring system to monitor the COX inhibitory activity of fruit extracts. In this assay the changes of concentration of dissolved oxygen are constantly monitored by an oxygen electrode in a Dissolved Oxygen Measuring System (Instech, Plymouth Meeting, Pa.). The output is recorded by a linear Recorder (Fisher Scientific, Pittsburgh, Pa.).
Each day a fresh potassium chloride solution (15 g/100 ml distilled water) was made and the electrode was set up according to manufacturers instructions. The chamber is kept at 37° C.
A prostaglandin assay kit was used and the assay set up in a manner similar to that described for the COX-1 assay. Briefly, 50 μl phenol was added to 20 ml 100 mM Tris buffer, warmed to 37° C. for 1 minute (working buffer). To a tube of hematin 0.9 ml of the working buffer was added. 50 μl 0.1NaOH was added to an arachidonic acid vial and vortexed. 0.43 ml water was added and the solution mixed again. Samples of extracts were weighed and dissolved in the working buffer to a final concentration of 0.1 g/ml. Buffer, samples or diluted samples are used in the enzyme assays directly.
The enzyme assay is performed according to the manufacturer's instruction, which should be well known to those of skill in the art. Briefly, 600 μl of working buffer were drawn into the chamber from the overflow outlet with the injection valve close, and the main outlet connected to a syringe in the right orientation. The stir bar was set a speed of 3 k/min. At 1 minute intervals, 5 ul enzyme, 15 ul hematin solution, 6 ul buffer or sample or diluted sample and 8 ul arachidonic acid solution was injected. The oxygen concentration changes were transformed into mV and recorded.

| SMILES | Specific Activity | Potency compared to Celebrex (COX-2 potency relative to Celebrex) |
| --- | --- | --- |
| CC(=O)Oc1ccccc1C(=O)O [Aspirin] | 0.5 | – |
| O=c1c(O)c(-c2ccc(O)c(O)c2)oc2cc(O)cc(O)c12 [Quercetin standard, Quercetin] | 6.3 | 78% |
